Assay results from patent US20250197374A1, “WEE1 DEGRADING COMPOUNDS AND USES THEREOF” (BRISTOL-MYERS SQUIBB COMPANY, priority 2023, published 2025).
Read-outs that look alike come from different tables or passages of the source.

Key:
Assay type in all cases: cell-based
[1] = system: MDA-MB-231 cells; assay: MDA-MB-231 cell proliferation assay (Cell-Titer-Glo, 120 hr); conditions: for EC50: read-out: MDA-MB 231 Cell Prolif. 120 hr EC50; for MDA-MB 231 Cell Prolif. 120 hr YMin (%): minimal percent of DMSO control observed
Excerpt: (§1) MKN45 cells were obtained from Celgene internal cell banks and cultured in RPMI complete media (RPMI-1640, 1× Penicillin/Streptomycin, 1× glutamine, 1× Sodium Pyruvate, Non-essential Amino Acids, 10% Fetal Bovine serum, all component from Thermo-Fisher). MDA-MB-231 cells were obtained from the ATCC (HTB-26) and cultured in RPMI-1640 and 10% Fetal Bovine serum; MDA-MB-231 cells were expanded and stored as aliquots in liquid nitrogen in Celgene internal cell banks. Compounds were dispensed into 384-well plates using an HP DE300 compound printer in triplicate with 8 compounds on each plate. Compounds were dispensed into 384-well black clear bottom plates (Corning #3764BC) using an EDC acoustic dispenser at BMS. For each compound, a 10-point dose response was printed at half-log dilutions starting at either 1 uM or 10 uM in triplicate for MKN45 cells and in duplicate for MDA-MB-231 cells. The DMSO concentration was kept constant for a final assay concentration of 0.1% per well assuming 50 ul final media volume. Compound plates were sealed and frozen at −20 C until use.
(§2) For each assay batch, compound plates were thawed and allowed to reach room temperature, and cells were seeded at 400 MKN45 cells per well, or 800 MDA-MB-231 cells per well, in 50 ul media listed above for each cell line. After 120 hours of incubation at 37 C and 5% CO2, cells were lysed by addition of 25 μL of Cell-Titer-Glo Reagent (Promega Corporation, Madison, WI), as per manufacturer's instructions, protected from light, shaken for 45 minutes, and total luminescence read by a Perkin Elmer Envision plate reader. Total luminescence signal is linearly correlated with cell number remaining in the well.
(§3) Luminescence data was processed per plate by subtracting reagent-only “blank” well luminescence from all measured values and calculating a percent of DMSO control value for each treatment well. Then, to determine the half-maximal effective concentration (EC50) values for cell growth inhibition, a four parameter logistic model was fit to the data for each DMSO-normalized compound: Sigmoidal Dose-Response Model: (FIT=(A+((B−A)/1+((C/x)^D)))) where C is the inflection point ([…]), D is the Hill slope, and A and B are the low and high limits of the fit respectively. The lower limit of the fit (value A) is referred to as Ymin-calculated. The minimal percent of DMSO control that is observed in the concentrations tested for each compound is labeled as “Ymin-obs”, and was recorded and reported in the tables. Sigmoidal fit curves were processed and evaluated using Activity Base (IDBS, Alameda, CA) or using Dotmatics (Boston, MA). N/A=not available at the present time.

[2] = system: MKN45 cells; assay: MKN45 cell proliferation assay (Cell-Titer-Glo, 120 hr); conditions: for EC50: read-out: MKN45 Cell Prolif. 120 hr EC50; for MKN45 Cell Prolif. 120 hr YMin (%): minimal percent of DMSO control observed
Excerpt: as §1, §2, §3

[3] = molecular target: T1, WEE1 (Homo sapiens, UniProt P30291+Q96SW2); assay: WEE1-ePL degradation assay (293T-LentiX, InCELL Hunter luminescence, 4 hr); conditions: for DC50: LentiX-HEK293T cells expressing WEE1-ePL, 4 hr incubation, read-out: 293T-LentiX WEE1-ePL Degradation 4 hr EC50; for 293T-LentiX WEE1-ePL Degradation 4 hr YMin (%): lower limit of fit, % of DMSO control signal remaining
T1 construct: C-terminal ePL-tagged (DiscoverX, Fremont, CA) full-length WEE1 expression construct; expressed in transfected cells; host or cells: LentiX-HEK293T (Invitrogen), lentivirally transduced; the cells also over-express GSPT1-GN
Excerpt: To generate LentiX-WEE1-ePL-GSPT1-ND cells for the WEE1 degradation assay, LentiX-HEK293T (Invitrogen) were tranduced by lentivirus with a C-terminal ePL-tagged (DiscoverX, Fremont, CA) full-length WEE1 expression construct. A separate lentiviral construct was introduced to over-express a mutated form of GSPT1 (NP_002085), termed GSPT1-GN, which contains a G575N mutation and is further truncated in the first 158 amino acids. GSPT1-GN is functional but not degradable by Cereblon. Cells were selected and maintained in complete DMEM media (DMEM, 10% Heat Inactivated FBS, 400 μg/mL Geneticin, and 1 μg/mL puromycin at 37 C and 5% CO2). Cells were passaged every 3-4 days by reseeding 1×10^6 cells in a T150 flask.
Cells were dispensed into 384-well white plates (Corning #3570, NY) that were pre-spotted with compounds using an acoustic dispenser (Echo acoustic transfer system, Beckman Coulter Life Sciences, Carlsbad, CA) as a 10-point dose-response curve with a 3-fold dilution starting at either 1 uM or 10 uM and including a DMSO control. Twenty-five microliters of media containing 2500 cells for LentiX-oeWEE1-ePL was dispensed per well. Assay plates were incubated at 37° C. with 5% CO2 for four hours (WEE1) After incubation, 25 μL of the InCELL Hunter™ Detection Reagent Working Solution (DiscoverX, Fremont, CA) was added to each well and incubated at room temperature for 30 minutes protected from light. After 30 minutes, luminescence was read on a PHERAstar luminometer (Cary, NC).
To determine the half-maximal effective concentration (EC50) values for WEE1-ePL degradation, a four parameter logistic model was used: (Sigmoidal Dose-Response Model) (FIT=(A+((B−A)/1+((C/x)^D)))) where C is the inflection point (EC50), D is the Hill slope, and A and B are the low and high limits of the fit respectively). The lower limit of the fit (value A) is referred to as Ymin. […] The maximum limit constraint, Ymax, is similarly derived using DMSO control. The curves were processed and evaluated using Activity Base (IDBS, Alameda, CA) or using Dotmatics (Boston, MA).

[4] = Homo sapiens, MDA-MB-231, 120 h

T1 sequence (P30291 whole entry): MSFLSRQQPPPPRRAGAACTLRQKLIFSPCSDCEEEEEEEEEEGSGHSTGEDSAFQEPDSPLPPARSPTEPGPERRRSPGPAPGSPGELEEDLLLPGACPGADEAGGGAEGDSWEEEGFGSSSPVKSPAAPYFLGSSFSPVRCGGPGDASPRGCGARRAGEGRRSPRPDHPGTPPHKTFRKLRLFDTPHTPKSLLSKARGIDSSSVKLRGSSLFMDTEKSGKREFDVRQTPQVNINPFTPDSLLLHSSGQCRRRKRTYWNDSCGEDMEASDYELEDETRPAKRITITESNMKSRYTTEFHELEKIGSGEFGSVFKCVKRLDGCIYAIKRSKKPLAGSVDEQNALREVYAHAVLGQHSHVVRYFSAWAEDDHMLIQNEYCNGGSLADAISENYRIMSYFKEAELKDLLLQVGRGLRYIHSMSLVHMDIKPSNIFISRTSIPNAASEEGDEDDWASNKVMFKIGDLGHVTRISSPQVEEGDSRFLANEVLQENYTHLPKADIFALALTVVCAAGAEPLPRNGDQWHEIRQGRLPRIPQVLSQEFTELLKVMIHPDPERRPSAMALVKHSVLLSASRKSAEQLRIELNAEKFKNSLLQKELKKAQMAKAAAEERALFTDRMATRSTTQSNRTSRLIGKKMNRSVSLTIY
T1 sequence (Q96SW2 whole entry): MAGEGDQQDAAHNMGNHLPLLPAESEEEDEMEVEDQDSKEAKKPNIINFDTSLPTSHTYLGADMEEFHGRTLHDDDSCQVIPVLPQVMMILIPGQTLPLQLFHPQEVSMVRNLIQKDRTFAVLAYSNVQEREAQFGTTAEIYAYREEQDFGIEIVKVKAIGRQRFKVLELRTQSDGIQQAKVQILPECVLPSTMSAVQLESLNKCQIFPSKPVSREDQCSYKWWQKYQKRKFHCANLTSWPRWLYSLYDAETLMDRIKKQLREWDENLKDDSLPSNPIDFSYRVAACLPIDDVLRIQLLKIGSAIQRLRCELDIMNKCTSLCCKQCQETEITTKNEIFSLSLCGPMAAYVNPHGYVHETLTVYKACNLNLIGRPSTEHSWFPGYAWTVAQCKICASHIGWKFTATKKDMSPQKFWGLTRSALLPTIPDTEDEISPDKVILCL
T1 sequence (Q16531 whole entry partner): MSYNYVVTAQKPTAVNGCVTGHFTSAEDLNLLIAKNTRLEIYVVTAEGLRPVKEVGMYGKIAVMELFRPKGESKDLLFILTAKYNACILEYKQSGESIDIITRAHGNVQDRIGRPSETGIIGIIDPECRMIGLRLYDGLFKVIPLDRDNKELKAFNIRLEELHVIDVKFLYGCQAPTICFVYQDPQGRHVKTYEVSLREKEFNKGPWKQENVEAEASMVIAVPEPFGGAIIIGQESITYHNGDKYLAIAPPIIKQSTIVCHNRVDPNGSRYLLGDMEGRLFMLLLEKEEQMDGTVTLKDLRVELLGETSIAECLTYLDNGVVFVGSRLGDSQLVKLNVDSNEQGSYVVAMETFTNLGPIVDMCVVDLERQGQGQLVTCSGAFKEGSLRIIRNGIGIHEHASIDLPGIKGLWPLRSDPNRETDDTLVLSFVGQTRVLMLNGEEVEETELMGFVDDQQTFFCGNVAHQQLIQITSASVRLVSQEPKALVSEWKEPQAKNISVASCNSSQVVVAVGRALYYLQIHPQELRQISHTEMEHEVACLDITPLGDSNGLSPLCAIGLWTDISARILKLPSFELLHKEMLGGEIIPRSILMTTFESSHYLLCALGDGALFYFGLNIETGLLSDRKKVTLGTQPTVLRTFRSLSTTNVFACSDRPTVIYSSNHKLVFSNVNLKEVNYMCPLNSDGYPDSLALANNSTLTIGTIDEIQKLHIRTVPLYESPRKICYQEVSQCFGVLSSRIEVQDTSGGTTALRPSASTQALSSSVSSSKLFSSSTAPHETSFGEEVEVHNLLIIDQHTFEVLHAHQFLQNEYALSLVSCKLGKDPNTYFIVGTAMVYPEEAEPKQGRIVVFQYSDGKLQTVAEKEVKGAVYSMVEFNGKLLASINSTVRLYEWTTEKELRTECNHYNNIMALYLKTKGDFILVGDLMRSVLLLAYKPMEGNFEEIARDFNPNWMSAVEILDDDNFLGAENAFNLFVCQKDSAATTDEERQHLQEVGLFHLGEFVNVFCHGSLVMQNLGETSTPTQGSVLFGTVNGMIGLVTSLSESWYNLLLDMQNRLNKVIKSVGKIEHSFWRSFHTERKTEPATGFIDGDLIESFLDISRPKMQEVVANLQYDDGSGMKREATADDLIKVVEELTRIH

Row | Structure (SMILES) | EC50 [1, 4] | EC50 ([2]; Homo sapiens, MKN-45, 120 h) | DC50 [3] | 293T-LentiX WEE1-ePL Degradation 4 hr YMin (%) [3] | EC50 [1] | EC50 [2] | MDA-MB 231 Cell Prolif. 120 hr YMin (%) [1] | MKN45 Cell Prolif. 120 hr YMin (%) [2]
1 | COC[C@@H]1CN(Cc2cc(F)c3nc(C4CCCO4)ncc3c2)C[C@H]1Oc1ccc2c(c1)CN([C@H]1CCC(=O)NC1=O)C2=O (mixture of isomers) [Example 76, rel-(3S)-3-(5-{[(3S,4S)-1-{[8-fluoro-2-(oxolan-2-yl)quinazolin-6-yl]methyl}-4-(methoxymethyl)pyrrolidin-3-yl]oxy}-1-oxo-2,3-dihydro-1H-isoindol-2-yl)piperidine-2,6-dione] | 99 nM | 11 nM | 41 nM | 25.5% |  |  | 17.9% | 9.4%
2 | CN1CC[C@]2(C[C@H](c3ccc4cc(CN5CC[C@H](Oc6ccc7c(c6)CN([C@H]6CCC(=O)NC6=O)C7=O)C5)ccc4n3)CO2)C1 (relative stereo) [Example 3, rel-(3S)-3-(5-(((3S)-1-((2-(7-methyl-1-oxa-7-azaspiro[4.4]nonan-3-yl)quinolin-6-yl)methyl)pyrrolidin-3-yl)oxy)-1-oxoisoindolin-2-yl)piperidine-2,6-dione] | 129 nM | 19 nM | 10 nM | 28.1% |  |  | 61.3% | 13.0%
3 | O=C1CCC(N2C(=O)c3ccc(O[C@H]4CCN(Cc5ccc6nc(N7CCOCC7)ncc6c5)C4)cc3C2=O)C(=O)N1 (single isomer, unassigned) [Example 12, 2-((S*)-2,6-dioxopiperidin-3-yl)-5-(((S)-1-((2-morpholino-quinazolin-6-yl)methyl)pyrrolidin-3-yl)oxy)isoindoline-1,3-dione] | 2720 nM | 337 nM |  |  |  |  | 79.6% | 40.6%
4 | O=C1CCC(N2C(=O)c3ccc(O[C@H]4CCN(Cc5ccc6nc(N7CCOCC7)ncc6c5)C4)cc3C2=O)C(=O)N1 (single isomer, unassigned) [Example 27, 2-((R*)-2,6-dioxopiperidin-3-yl)-5-(((S)-1-((2-morpholino-quinazolin-6-yl)methyl)pyrrolidin-3-yl)oxy)isoindoline-1,3-dione] |  |  |  |  | 2990 nM | 205 nM | 81.8% | 29.1%

Second part, led by results:

Row | EC50 [1, 4] | EC50 ([2]; Homo sapiens, MKN-45, 120 h) | DC50 [3] | 293T-LentiX WEE1-ePL Degradation 4 hr YMin (%) [3] | EC50 [1] | EC50 [2] | Structure (SMILES) | MDA-MB 231 Cell Prolif. 120 hr YMin (%) [1] | MKN45 Cell Prolif. 120 hr YMin (%) [2]
5 | 61 nM | 233 nM | 12 nM | 40.9% |  |  | CC(C)(O)[C@@H]1CN(Cc2ccc3nc(C4CCOCC4)ccc3c2)C[C@H]1Oc1ccc2c(c1)CN([C@H]1CCC(=O)NC1=O)C2=O (racemic) [Example 137, rel-(3S)-3-(5-((4-(2-hydroxypropan-2-yl)-1-((2-(tetrahydro-2H-pyran-4-yl)quinolin-6-yl)methyl)pyrrolidin-3-yl)oxy)-1-oxoisoindolin-2-yl)piperidine-2,6-dione] | 77.3% | 70.6%
6 | ≥ 10300 nM | 348 nM | 3 nM | 48.1% |  |  | COC(C)(C)[C@@H]1CN(Cc2ccc3nc(C4CCOCC4)ccc3c2)C[C@H]1Oc1ccc2c(c1)CN([C@H]1CCC(=O)NC1=O)C2=O (racemic) [Example 138, (3S)-3-(5-((4-(2-methoxypropan-2-yl)-1-((2-(tetrahydro-2H-pyran-4-yl)quinolin-6-yl)methyl)pyrrolidin-3-yl)oxy)-1-oxoisoindolin-2-yl)piperidine-2,6-dione] | 94.6% | 80.2%
7 | 101 nM | 5 nM | 1 nM | 30.3% |  |  | O=C1CC[C@H](N2Cc3cc(O[C@H]4CCN(Cc5ccc6nc([C@@H]7CCO[C@@]8(CCOC8)C7)ccc6c5)C4)ccc3C2=O)C(=O)N1 (relative stereo) [Example 20, rel-(3S)-3-(5-(((3S)-1-((2-(2,6-dioxaspiro[4.5]decan-9-yl)quinolin-6-yl)methyl)pyrrolidin-3-yl)oxy)-1-oxoisoindolin-2-yl)piperidine-2,6-dione] | 60.2% | 11.6%
